Reference: publication PMC12396409, “Screening and hit evaluation of a microbial metabolite library against the pathogenic Plasmodium falciparum and Toxoplasma gondii parasites” (International Journal for Parasitology: Drugs and Drug …, 2025)
Where two headings read alike, the source gives them in different places.

Tests used:
[1] = tested on: P. falciparum 3D7 parasites; assay: P. falciparum growth inhibition assay, 1-cycle (72 h treatment), SYBR DNA staining (library screen at 2 μg/mL and dose-response); assay type: cell-based, Plasmodium falciparum; settings: for activity at 2 µg/mL: Plasmodium falciparum, 3D7
[2] = tested on: T. gondii RH strain (RH-Tub-eYFP) tachyzoites; assay: microbe, parasite or virus in culture; assay type: cell-based, Toxoplasma gondii; settings: 72 h, 72 h; for percent parasite growth at 2 µg/mL: Toxoplasma gondii
[3] = tested on: P. falciparum 3D7 parasites; assay: P. falciparum growth inhibition assay, 2-cycle (120 h treatment), delayed-death screen and dose-response; assay type: cell-based, Plasmodium falciparum; settings: for activity at 2 µg/mL: Plasmodium falciparum, 3D7
[4] = library screen at 2 μg/mL, 72 h, % growth, replicate 1
[5] = library screen at 2 μg/mL, 72 h, % growth, replicate 2
[6] = library screen at 2 μg/mL, % growth, replicate 1
[7] = library screen at 2 μg/mL, % growth, replicate 2
[8] = library screen at 2 μg/mL, 120 h, % growth, replicate 1
[9] = library screen at 2 μg/mL, 120 h, % growth, replicate 2

O=C(O)c1ccc[nH]1 [Pyrrole-2-carboxylic acid]
activity at 2 µg/mL ([1]; P. falciparum, 72 h, parasite screen 2 μg/mL, % growth, replicate 1, read-out: Pf_72h_%Growth_Rep1): 86.7% | activity at 2 µg/mL ([1]; P. falciparum, 72 h, parasite screen 2 μg/mL, % growth, replicate 2, read-out: Pf_72h_%Growth_Rep2): 115% | percent parasite growth at 2 µg/mL ([2]; T. gondii, parasite screen 2 μg/mL, % growth, replicate 1, read-out: Tg_72h_%Growth_Rep1): 130% | percent parasite growth at 2 µg/mL ([2]; T. gondii, parasite screen 2 μg/mL, % growth, replicate 2, read-out: Tg_72h_%Growth_Rep2): 86.8% | activity at 2 µg/mL ([3]; P. falciparum, 120 h, parasite screen 2 μg/mL, % growth, replicate 1, read-out: Pf_120h_%Growth_Rep1): 88.6% | activity at 2 µg/mL ([3]; P. falciparum, 120 h, parasite screen 2 μg/mL, % growth, replicate 2, read-out: Pf_120h_%Growth_Rep2): 136%

Cc1cc(O)c2c(c1)C(=O)c1cc(O)cc(O)c1C2=O [Emodin]
activity at 2 µg/mL ([1]; library screen at 2 μg/mL, 72 h, % growth, replicate 1, read-out: Pf_72h_%Growth_Rep1): 87.3% | activity at 2 µg/mL ([1]; library screen at 2 μg/mL, 72 h, % growth, replicate 2, read-out: Pf_72h_%Growth_Rep2): 86.6% | percent parasite growth at 2 µg/mL ([2]; library screen at 2 μg/mL, % growth, replicate 1, read-out: Tg_72h_%Growth_Rep1): 116% | percent parasite growth at 2 µg/mL ([2]; library screen at 2 μg/mL, % growth, replicate 2, read-out: Tg_72h_%Growth_Rep2): 87.4% | activity at 2 µg/mL ([3]; library screen at 2 μg/mL, 120 h, % growth, replicate 1, read-out: Pf_120h_%Growth_Rep1): 85.9% | activity at 2 µg/mL ([3]; library screen at 2 μg/mL, 120 h, % growth, replicate 2, read-out: Pf_120h_%Growth_Rep2): 114%

C[C@@H]1CC[C@H]2C(C)(C)[C@H](O)CC[C@]2(C)[C@@]12Cc1c(O)cc3c(c1O2)CNC3=O [Stachybotrylactam]
Pf_72h_%Growth_Rep1 ([1]; P. falciparum, 72 h, parasite screen 2 μg/mL, % growth, replicate 1): 26.98% | Pf_72h_%Growth_Rep2 ([1]; P. falciparum, 72 h, parasite screen 2 μg/mL, % growth, replicate 2): 44.84% | Tg_72h_%Growth_Rep1 ([2]; T. gondii, parasite screen 2 μg/mL, % growth, replicate 1): 105.88% | Tg_72h_%Growth_Rep2 ([2]; T. gondii, parasite screen 2 μg/mL, % growth, replicate 2): 102.71% | Pf_120h_%Growth_Rep1 ([3]; P. falciparum, 120 h, parasite screen 2 μg/mL, % growth, replicate 1): 94.74% | Pf_120h_%Growth_Rep2 ([3]; P. falciparum, 120 h, parasite screen 2 μg/mL, % growth, replicate 2): 25.01%

CC(=O)OC[C@]12[C@H](O)C(=O)C(C)=C[C@H]1O[C@@H]1[C@H](O)C[C@@]2(C)[C@]12CO2 [Acetyldeoxynivalenol, 15-]
Pf_72h_%Growth_Rep1 [1, 4]: 5.76% | Pf_72h_%Growth_Rep2 [1, 5]: -0.64% | Tg_72h_%Growth_Rep1 [2, 6]: -2.45% | Tg_72h_%Growth_Rep2 [2, 7]: -0.58% | Pf_120h_%Growth_Rep1 [3, 8]: 6.22% | Pf_120h_%Growth_Rep2 [3, 9]: 4.98%

C[C@@H]1Cc2ccc(C(=O)N[C@@H](Cc3ccccc3)C(=O)O)c(O)c2C(=O)O1 [BIA-O1196]
Pf_72h_%Growth_Rep1 ([1]; P. falciparum 3D7, 72 h, parasite screen at 2 μg/mL, % growth, replicate 1): 83.68% | Pf_72h_%Growth_Rep2 ([1]; P. falciparum 3D7, 72 h, parasite screen at 2 μg/mL, % growth, replicate 2): 90.59% | Tg_72h_%Growth_Rep1 ([2]; T. gondii, parasite screen at 2 μg/mL, % growth, replicate 1): 126.36% | Tg_72h_%Growth_Rep2 ([2]; T. gondii, parasite screen at 2 μg/mL, % growth, replicate 2): 89.16% | Pf_120h_%Growth_Rep1 ([3]; P. falciparum 3D7, 120 h, parasite screen at 2 μg/mL, % growth, replicate 1): 89.68% | Pf_120h_%Growth_Rep2 ([3]; P. falciparum 3D7, 120 h, parasite screen at 2 μg/mL, % growth, replicate 2): 126.27%

CC(=O)Nc1c2sscc-2n(C)c1=O [Thiolutin]
activity at 2 µg/mL ([1]; P. falciparum, 72 h, screen at 2 μg/mL, replicate 1, read-out: Pf_72h_%Growth_Rep1): 4.59% | activity at 2 µg/mL ([1]; P. falciparum, 72 h, screen at 2 μg/mL, replicate 2, read-out: Pf_72h_%Growth_Rep2): 0.05% | percent parasite growth at 2 µg/mL ([2]; T. gondii, screen at 2 μg/mL, replicate 1, read-out: Tg_72h_%Growth_Rep1): 2.01% | percent parasite growth at 2 µg/mL ([2]; T. gondii, screen at 2 μg/mL, replicate 2, read-out: Tg_72h_%Growth_Rep2): 1.94% | activity at 2 µg/mL ([3]; P. falciparum, 120 h, screen at 2 μg/mL, replicate 1, read-out: Pf_120h_%Growth_Rep1): 42.4% | activity at 2 µg/mL ([3]; P. falciparum, 120 h, screen at 2 μg/mL, replicate 2, read-out: Pf_120h_%Growth_Rep2): 15.5%

COc1cc(C)c2c(OC)cc(=O)oc2c1-c1c(OC)cc(C)c2c(OC)cc(=O)oc12 [BIA-K1634]
Pf_72h_%Growth_Rep1 ([1]; P. falciparum 3D7, 72 h, library screen at 2 μg/mL, % growth, replicate 1): 79.71% | Pf_72h_%Growth_Rep2 ([1]; P. falciparum 3D7, 72 h, library screen at 2 μg/mL, % growth, replicate 2): 89.27% | Tg_72h_%Growth_Rep1 ([2]; T. gondii RH, library screen at 2 μg/mL, % growth, replicate 1): 128.61% | Tg_72h_%Growth_Rep2 ([2]; T. gondii RH, library screen at 2 μg/mL, % growth, replicate 2): 101.38% | Pf_120h_%Growth_Rep1 ([3]; P. falciparum 3D7, 120 h, library screen at 2 μg/mL, % growth, replicate 1): 81.50% | Pf_120h_%Growth_Rep2 ([3]; P. falciparum 3D7, 120 h, library screen at 2 μg/mL, % growth, replicate 2): 124.49%

COCCC[C@H]1O[C@@](O)([C@H](C)C2CC(OC)C(O)/C=C(C)/C=C(C)/C=C(/C)C(O[C@H]3O[C@H](C)[C@@H](OC)[C@H](O)[C@H]3O)C(C)/C=C(C)/C=C(OC)\C=C(/C)C(=O)O2)[C@H](OC)[C@@H](O)[C@]1(C)O[C@H]1C[C@H](O)[C@H](O[C@H]2C[C@@](C)(O)[C@H](O)[C@@H](C)O2)[C@@H](C)O1 (stereo partly drawn) [Amycolatopsin B]
Pf_72h_%Growth_Rep1 [1, 4]: 44.61% | Pf_72h_%Growth_Rep2 [1, 5]: 41.71% | Tg_72h_%Growth_Rep1 [2, 6]: 0.29% | Tg_72h_%Growth_Rep2 [2, 7]: 0.85% | Pf_120h_%Growth_Rep1 [3, 8]: 16.58% | Pf_120h_%Growth_Rep2 [3, 9]: 9.62%
